The source of these data is patent publication US7803375B2, “Methods and compositions for treating conditions of the eye” (Massachusetts Eye and Ear Infirmary, priority 2005, dated 2010).

The conditions of data set [1]: typical; cited from earlier work.
A further data set concerns Fas receptor. In words: Retinal levels of Fas receptor after verteporfin PDT. The data set is classed as in vivo. The settings on record: rat retina, FIG. 3.

In the case of `O=C([O-])c1c(Cl)c(Cl)c(Cl)c(Cl)c1-c1c2cc(I)c(=O)c(I)c-2oc2c(I)c([O-])c(I)cc12.[Na+].[Na+]` [rose bengal], in data set [1], the “persistence in the target neovasculature” value is “about ten”.

On to verteporfin, for which the “retinal levels of the apoptotic death receptor Fas” value in the data set with Fas receptor was “increases”.

Take `C=Cc1c(C)c2cc3nc(c(CC(=O)N[C@@H](CC(=O)O)C(=O)O)c4[nH]c(cc5nc(cc1[nH]2)C(C)=C5CC)c(C)c4C(=O)O)[C@@H](CCC(=O)O)[C@@H]3C` [N-aspartyl chlorin e6]: the “persistence in the target neovasculature” value in data set [1] is “about twenty”.

With benzoporphyrin derivative, in data set [1], the “persistence in the target neovasculature” value is reported as “about fifty”.

Regarding `CC(=O)[O-].CC(=O)[O-].CCc1c(CC)c2cc3nc(cnc4cc(OCCOCCOCCOC)c(OCCOCCOCCOC)cc4ncc4nc(cc1[n-]2)C(CCCO)=C4C)C(C)=C3CCCO.O.[Lu+3]` [lutetium texaphyrin], the “persistence in the target neovasculature” value in data set [1] is recorded as “about twenty”.
